The subject of one experiment is CT26/luc tumor. The experiment can be described thus: Survival of CT26/luc tumor-bearing BALB/c mice. The class given is in vivo, mouse. Conditions: 10 mg/kg/d by gavage, never 43.1±2.6 days. How it is done: Second, all animal study protocols were approved by the Institutional Animal Care and Use Committee (IACAU) of National Yang Ming University. Mirtazapine (0.25 mg) was dissolved in 0.05 ml of 0.9% NaCl plus 0.5% absolute ethanol for each mouse (i.e. 10 mg/kg.) Male BALB/c mice (initial weights 25±2 g, and purchased from the National Laboratory Animal Center, Taipei, Taiwan) were housed in the cages, five mice per cage, under a 12:12 h reverse light/dark cycle with lights off at 6 pm Animals were handled and weighed daily for a week to reduce any non-specific stress responses. And then, please refer to FIG. 1A and FIG. 1B, FIG. 1A and FIG. 1B are diagrams showing the experimental designs according to an embodiment of the present invention. […] “Wild-type” means the mice are monitored without tumor inoculation and mirtazapine treatment, drug means the mice are monitored with continuous mirtazapine treatment but without tumor inoculation, never means the mice are monitored with tumor inoculation and daily 0.05 ml of 0.9% NaCl plus 0.5% absolute ethanol treatment but without mirtazapine treatment, always means the mice are monitored with mirtazapine treatment initiated 2 weeks before the tumor inoculation, and concurrent means the mice are monitored with tumor inoculation and mirtazapine treatment on the same day, and after means the mice are monitored with mirtazapine treatment initiated 2 weeks post the tumor inoculation. That is, the mice were assayed on day 22 for behaviors, and then sacrificed for the measurement of lymphocyte subsets and performed with ex vivo autoradiography.
Accordingly, the CT26/luc cells (2×10^6 cells/200 μL) suspended in the serum-free RPMI medium were transplanted subcutaneously into the dorsal region of the right thighs of the BALB/c mice. 10 mg/kg/d mirtazapine dissolved in 0.9% sodium chloride and 0.5% ethanol was administered to mice by gavage daily till mice expired or terminated on day 67 post tumor inoculation. Survival rate and interval were assayed for never, always, concurrent, and after (n=10 per group). […]

The subject of the next experiment is IFN-γ. Briefly: IFN-γ level in tumor by ELISA. The format is in vivo, mouse. Conditions: tumor lysate 6 weeks after tumor inoculation, 2 mg tumor protein. Here is the method: And then, the level of IFN-γ in the tumor was determined using an ELISA kit (R&D Systems, Taiwan). Briefly, 6 weeks after tumor inoculation, the mice were sacrificed and the tumors were quickly removed and minced, then added with lysis buffer containing 1% protease inhibitor cocktail (T-PER tissue protein extraction reagent, Thermo Scientific, USA). After sonication, the cell mixture was centrifuged with 15000 rpm (Kubota centrifuge 1700, Japan) at 4° C. for 10 min The supernatant was collected for the protein quantification using bovine serum albumin as the standard. Two mg of the tumor proteins was used for the quantification of IFN-γ.
A general note: ELISA stands for enzyme-linked immunosorbent assay.

The next experiment deals with TNF-α. The experiment can be described thus: TNF-α in tumor by ex vivo Western blotting. Also noted: species or system mouse. Conditions: Always, Concurrent and After; day 42 post tumor inoculation; decreased to % of Never. Here is the method: As to the quantification of TNF-α, the whole blood withdrawn from the pouch of each mouse once a week for up to 6 weeks was centrifuged at 600×g for 20 min, and serum was collected. The serum TNF-α level was evaluated with an ELISA kit (eBioscience, USA). The level of TNF-α in the tumor of mice on day 42 post tumor inoculation was determined using ex vivo Western Blotting assay. Briefly, 6 weeks after tumor inoculation, the mice were sacrificed and the tumors were quickly removed and minced, then added with lysis buffer containing 1% protease inhibitor cocktail (T-PER tissue protein extraction reagent, Thermo Scientific, USA). Equal amounts of proteins (40 μg) were subjected to SDS-PAGE and transferred to PVDF membranes (Millipore, Bedford, Mass.). Non-specific binding was blocked by incubation with 5% non-fat milk. Membrane was incubated with antibodies against TNF-α (Abbiotec, USA) and β-actin (Millipore, USA) overnight at 4° C. The goat-anti rabbit IgG (Millipore) and goat-anti mouse IgG conjugated with horseradish peroxidase (Millipore) were used as the secondary antibodies. The band signal from the antigen-antibody binding was illustrated with enhanced chemoluminescence system (ECL, Millipore). Image J software (National Institutes of Health, USA) was used for the quantitative analysis.

The text below walks through data of patent publication US20140271727A1, “METHOD OF USING AN ANTIDEPRESSANT FOR INCREASING IMMUNITY OF A SUBJECT AND TREATING CANCER” (NATIONAL YANG-MING UNIVERSITY, priority 2013, published 2014).

Molecules are shown by their SMILES.

For `CN1CCN2c3ncccc3Cc3ccccc3C2C1` (stereo not shown) [mirtazapine], the survival time in the experiment with CT26/luc tumor (group after) turned out to be 57.01 ± 3.2 days; in the experiment with CT26/luc tumor (group always, terminated on day 67) it was 66.91 ± 0.1 days; with CT26/luc tumor (group concurrent), 63.61 ± 1.5 days. Further, the IFN-γ in tumor with IFN-γ (group Always) is 85.35 ± 4.5 pg/mL; in the experiment on IFN-γ (group Concurrent) it was 39.42 ± 7.42 pg/mL; in the experiment on IFN-γ (group after), 19.60 ± 1.13 pg/mL. In the experiment with TNF-α, the “TNF-α level in tumors relative to Never” value stood at 40%.
